Where two headings read alike, the source gives them in different places.
Key:
TAFIa [1] = target: T1, TAFIa (Homo sapiens, UniProt Q96IY4); assay: TAFIa inhibition (Actichrome plasma TAFI Activity Kit, 15 minutes pre-incubation); format: biochemical; settings: 15 minutes pre-incubation at room temperature
T1 construct: purchased American Diagnostica 874TAFIA
T1 sequence (Q96IY4 115-423): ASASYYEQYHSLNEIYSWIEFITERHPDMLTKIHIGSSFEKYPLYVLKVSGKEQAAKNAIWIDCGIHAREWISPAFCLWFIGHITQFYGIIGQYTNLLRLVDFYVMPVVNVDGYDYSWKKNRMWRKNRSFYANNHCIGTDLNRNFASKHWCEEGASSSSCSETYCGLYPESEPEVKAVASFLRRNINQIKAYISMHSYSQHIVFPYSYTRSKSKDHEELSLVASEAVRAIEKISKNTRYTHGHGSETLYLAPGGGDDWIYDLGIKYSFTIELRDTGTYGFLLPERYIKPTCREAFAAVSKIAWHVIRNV
Experimental: The prepared substances were tested for TAFIa inhibition using the Actichrome plasma TAFI Activity Kit from American Diagnostica (Pr. No. 874). This entailed adding 28 μl of assay buffer (20 mM Hepes, 150 mM NaCl, pH 7.4) and 10 μl of TAFIa (American Diagnostica Pr. No. 874TAFIA; 2.5 μg/ml) to 2 μl of 2.5 mM DMSO solution of the substance and incubating in a 96 half-well microtiter plate at room temperature for 15 minutes. The enzyme reaction was started by adding 10 μl of TAFIa developer (prediluted 1:2 with assay buffer). The time course of the reaction was followed at 420 nm in a microtiter plate reader (SpectraMax plus 384; Molecular Devices) for 15 minutes.
The IC50 values were calculated from the averaged values (duplicate determination) of serial dilutions of the substance with the aid of the Softmax Pro software (version 4.8; Molecular Devices).

TAFIa [2] = target: T1, TAFIa; assay: TAFIa inhibition at variable preincubation times; format: biochemical; settings: for behaviour of the coefficient of IC50s with increasing pre-incubation time: increasing pre-incubation time (0 to 30 min)
Experimental: The prepared substances were tested for TAFIa inhibition using the Actichrome plasma TAFI Activity Kit from American Diagnostica (Pr. No. 874). This entailed adding 28 μl of assay buffer (20 mM Hepes, 150 mM NaCl, pH 7.4) and 10 μl of TAFIa (American Diagnostica Pr. No. 874TAFIA; 2.5 μg/ml) to 2 μl of 2.5 mM DMSO solution of the substance and incubating in a 96 half-well microtiter plate at room temperature for variable pre-incubation times (0, 5, 15 and 30 minutes). The enzyme reaction was started by adding 10 μl of TAFIa developer (prediluted 1:2 with assay buffer). The time course of the reaction was followed at 420 nm in a microtiter plate reader (SpectraMax plus 384; Molecular Devices) for 15 minutes.
The IC50 values were calculated from the averaged values (duplicate determination) of serial dilutions of the substance with the aid of the Softmax Pro software (version 4.8; Molecular Devices). The coefficient of IC50 values was determined by IC50 value at 0 min over IC50 value at x minutes, wherein x can be 0, 5, 15 or 30 minutes of pre-incubation time.

[3] = example compounds, read-out: IC50

SMILES	IC50 (TAFIa [1]; [3])	behaviour of the coefficient of IC50s with increasing pre-incubation time (TAFIa [2])	Coefficient of IC50s (IC50 value at 0 min/IC50 value at x min preincubation time) (TAFIa [2]; pre-incubation time 0 min)	Coefficient of IC50s (IC50 value at 0 min/IC50 value at x min preincubation time) (TAFIa [2]; pre-incubation time 5 min)	Coefficient of IC50s (IC50 value at 0 min/IC50 value at x min preincubation time) (TAFIa [2]; pre-incubation time 15 min)	Coefficient of IC50s (IC50 value at 0 min/IC50 value at x min preincubation time) (TAFIa [2]; pre-incubation time 30 min)	IC50 (TAFIa [1]; comparison examples according to WO2009146802, read-out: IC50 of Comparison examples)
CC(C)[C@H]1COCCCCOc2ccc(cc2)C[C@@H](NC(=O)N[C@@](C)(C[C@H]2C[C@H](N)C2)C(=O)O)C(=O)N1 [Example 2, (S)-3-trans-(3-Amino-cyclobutyl)-2-[3-((9S,12R)-9-isopropyl-11-oxo-2,7-dioxa-10-aza-bicyclo[12.2.2]octadeca-1(17),14(18),15-trien-12-yl)-ureido]-2-methyl-propionic acid]	0.3 nM	increases	1	2.9	5.8	7.7	–
CC(C)[C@H]1COCCCCOc2ccc(cc2)C[C@@H](NC(=O)N[C@@H](C[C@H]2C[C@H](N)C2)C(=O)O)C(=O)N1 [reference compound]	–	stays nearly constant in time	1	0.5	1.3	1	4 nM
CC(C)[C@H]1COCCCCOc2ccc(cc2)C[C@@H](NC(=O)N[C@@](C)(C[C@@H]2CC[C@@H](N)C2)C(=O)O)C(=O)N1 [Example 3, (S)-3-((1R,3R)-3-Amino-cyclopentyl)-2-[3-((9S,12R)-9-isopropyl-11-oxo-2,7-dioxa-10-aza-bicyclo[12.2.2]octadeca-1(17),14(18),15-trien-12-yl)-ureido]-2-methyl-propionic acid]	1 nM	–	–	–	–	–	–
CC(C)[C@H]1COCCCCOC[C@@H](NC(=O)N[C@@](C)(Cc2ccc(N)nc2)C(=O)O)C(=O)N1 [Example 4, (S)-3-(6-Amino-pyridin-3-yl)-2-[3-((3S,6R)-3-isopropyl-5-oxo-1,8-dioxa-4-aza-cyclododec-6-yl)-ureido]-2-methyl-propionic acid]	1 nM	–	–	–	–	–	–
CC(C)[C@H]1COCCCCOc2ccc(cc2)C[C@@H](NC(=O)N[C@@](C)(Cc2ccc(N)nc2)C(=O)O)C(=O)N1 [Example 1, (S)-3-(6-Amino-pyridin-3-yl)-2-[3-((9S,12R)-9-isopropyl-11-oxo-2,7-dioxa-10-aza-bicyclo[12.2.2]octadeca-1(17),14(18),15-trien-12-yl)-ureido]-2-methyl-propionic acid]	0.3 nM	–	–	–	–	–	–

Source: patent US9834527B2, “Macrocyclic urea derivatives as inhibitors of TAFIa, their preparation and their use as pharmaceuticals” (SANOFI, priority 2013, dated 2017)
